Series [1] can be described thus: chemical stability: retention (%) after heating at 60° C. for 4 hours, by HPLC. The class given is physicochemical. Here is the method:
The chemical stability of the present compound was evaluated by determining the retention (%) after heating at 60° C. for 4 hours. In Table 5 are shown the test results together with those for spergualin as reference. The retention was determined by means of high performance liquid chromatography (HPLC). The column was packed with Nucleosil® 5C18. The solvent used for spergualin was a mixture (6:94) of acetonitrile -0.01M sodium pentanesulfonate +0.01M Na2 HPO4 (pH 3), while that for the compounds of this invention was a mixture of acetonitrile -0.005M sodium pentanesulfonate ±0.01M Na2 HPO4 (pH 3). The mixture ratio in the latter case was varied for each particular compound. For instance, a mixing ratio of 10:90 was used for Compound No. 9, while that of 7:93 for Compound No. 22.

Series [2] relates to mouse leukemia L-1210 cells. Briefly: growth inhibitory activity to cancer cells in vitro (L-1210, 48 hours). Format: cell-based. The note with it: for inhibition at 5 µg/mL: L1210, 5 mcg/ml; for inhibition at 10 µg/mL: L1210, 10 mcg/ml; for inhibition at 20 µg/mL: L1210, 20 mcg/ml; for inhibition at 40 µg/mL: L1210, 40 mcg/ml; for IC50: L1210, L-1210 cells, read-out: 50% inhibitory concentration; for inhibition at 1.25 µg/mL: L1210, 1.25 mcg/ml; for inhibition at 2.5 µg/mL: L1210, 2.5 mcg/ml. Here is the method:
DBA/2 mice were implanted with 10^5 mouse leukemia L-1210 cells. The ascites collected asceptically from the mice after 4 days of feeding was washed three times with physiological saline to obtain L-1210 cells, which was then suspended in RPMI 1640 culture medium [G. E. Moore, Journal of the American Medical Association, Vol. 199, 519 (1967); H. J. Morton, In Vitro, Vol. 6, 89 (1970)] to which 10% fetal calf serum and 5 μM 2-mercaptoethanol had been added, and the resulting suspension was diluted to 5×10^4 L-1210 cells per 0.9 ml. A microplate carrying 0.9 ml of the cell suspension and 0.1 ml of the culture medium containing the sample being tested was kept in a carbon dioxide incubator at 37° C. After 48 hours of cultivation, the number of cells was measured by means of a Coulter Counter (Coulter Electronics, Inc., U.S.A.) to obtain the growth inhibition (%)=(1--T/C )×100=[1-(number of grown cells in medium containing sample/(number of grown cells in control medium)]×100. The 50% growth inhibitory concentration was calculated from the values of growth inhibition at varied sample concentrations. The results of tests on typical compounds of this invention for the growth inhibition of L-1210 cells were as shown in Table 6.

Series [3] is described as follows: acute toxicity in mice (single intraperitoneal administration). The settings on record: mouse, in vivo, ip; mice, single i.p.; read-out: LD50 (median lethal dose on single administration). Here is the method:
(§1) In Table 8 median lethal doses (LD50) of typical compounds of this invention are shown, measured in mice upon single intraperitoneal administration, as well as maximum tolerated doses in terms of total dose when a fixed amount per unit body weight was administered intraperitoneally to mice once a day for 6 consecutive days.
*Median lethal dose on single administration.

The nature of series [4]: cumulative toxicity in mice (maximum tolerated dose, once a day for 6 consecutive days). The settings on record: mouse, in vivo, ip, i.p. once a day for 6 consecutive days, total dose, read-out: Maximum Tolerated Dose (total dose not causing death). How it is done: as §1
**Maximum value of the total dose not causing death when a fixed amount
per unit body weight is administered to mice once a day for 6 consecutive

The subject of the next series is mouse leukemia L-1210. The series is described as follows: therapeutic effect on implanted cancer in mice (L-1210, survival over 30 days). The note with it: L1210, ip, 720 h, 6 days; for responders at 1.56 mg/kg / response vs control in vivo at 1.56 mg/kg: 1.56 mg/kg/day i.p.; for responders at 3.13 mg/kg / response vs control in vivo at 3.13 mg/kg: 3.13 mg/kg/day i.p.; for responders at 6.25 mg/kg / response vs control in vivo at 6.25 mg/kg: 6.25 mg/kg/day i.p.; for responders at 12.5 mg/kg / response vs control in vivo at 12.5 mg/kg: 12.5 mg/kg/day i.p.; for responders at 25 mg/kg / response vs control in vivo at 25 mg/kg: 25 mg/kg/day i.p. The class given is in vivo, mouse (BDF1). The text has this: BDF1 strain male mice (5 weeks old) were each inoculated intraperitoneally with 10^5 mouse leukemia L-1210 cells and treated once a day by intraperitoneal injection with a test compound dissolved in physiological saline for 6 consecutive days beginning from the day of inoculation. The mice were then observed for 30 days to determine the rate of prolongation of survival period=100×T/C=100×(average survival days of treated group)/(average survival days of control group).

The mark [5] stands for this setting: read-out: Growth inhibition (%), (1-T/C) × 100.
The mark [6] stands for this setting: read-out: Number of mice survived for 30 days (converted).
Where [7] appears, read: read-out: Prolongation of survival period (%), T/C × 100.

The structures appear in SMILES notation. In brackets after ≈: the same amount, converted by molar mass.

The fraction remaining is what is left of the initial amount, in per cent. The low end stands for a greater loss, the high end for greater stability.

On to `COC(NC(=O)C[C@@H](O)CCCCNC(=N)N)C(=O)NCCCCNCCCN` (single isomer, unassigned; (+)) [Compound 22 (+), (+)-11-O-methylspergualin], for which the “Stability [Retention (%)]” value in series [1] (pH 2) is 79.7%; in series [1] (pH 4), 100%; in series [1] (pH 5), 100%; in series [1] (pH 6) it was 100%; in series [1] (pH 7), 100%; in series [1] (pH 8), 100%. The “Stability [Retention (%)]” value in series [1] (pH 9, 240 min) worked out at 100%; in series [1] (pH 10, 240 min), 95.6%.

In the case of `COC(NC(=O)CCCCCNC(=N)N)C(=O)NCCCCNCCCN` (stereo not shown) [Compound 8, N-[4-(3-aminopropyl)aminobutyl]-2-(6-guanidinohexanamido)-2-methoxyethanamide], in series [2] (setting [5]), the inhibition at 5 µg/mL was found to be 33.2%, the inhibition at 10 µg/mL was determined as 38.1%, the inhibition at 20 µg/mL was found to be 46.8% and the inhibition at 40 µg/mL stood at 53.5%. For the same compound, in series [2] (L1210, 80 mcg/ml, read-out: Growth inhibition (%), (1-T/C) × 100), the inhibition at 80 µg/mL worked out at 66.3%. The inhibition at 160 µg/mL in series [2] (L1210, 160 mcg/ml, read-out: Growth inhibition (%), (1-T/C) × 100) was found to be 88.2%. Also, the IC50 in series [2] stood at 28 µg/mL (≈ 72.3 µM). Besides, the LD50 in series [3] was in the range of 25 to 50 mg/kg. Further, the MTD in series [4] is over 150 mg/kg.

In the case of `COC(NC(=O)CCCNC(=N)N)C(=O)NCCCCNCCCN` (stereo not shown) [Compound 7, N-[4-(3-aminopropyl)aminobutyl]-2-(4-guanidinobutanamido)-2-methoxyethanamide], in series [2] (setting [5]), the inhibition at 1.25 µg/mL stood at 38.7%, the inhibition at 2.5 µg/mL came out at 80.7%, the inhibition at 5 µg/mL came out at 98.5% and the inhibition at 10 µg/mL turned out to be 99.8%. Moreover, in series [2] (setting [5]), the inhibition at 20 µg/mL was determined as 99.9% and the inhibition at 40 µg/mL was determined as 99.3%. The IC50 in series [2] was 1.5 µg/mL (≈ 4.17 µM).

As to `COC(NC(=O)C[C@@H](O)CCCCNC(=N)N)C(=O)NCCCCNCCCN` (single isomer, unassigned; (-)) [22 (-), (-)-11-O-methylspergualin], the fraction remaining at 4 h in series [1] (pH 2, pH 2) amounted to 79.7%. Besides, the amount remaining at 4 h in series [1] (pH 4, pH 4) came out at 100%. The amount remaining at 4 h in series [1] (pH 5, pH 5) was found to be 100%. Further, the amount remaining at 4 h in series [1] (pH 6, pH 6) was determined as 100%. This compound also registered an amount remaining at 4 h in series [1] (pH 7, pH 7) of 100%. The share remaining at 4 h in series [1] (pH 8, pH 8) is 100%. In series [1] (pH 9, pH 9), this compound displayed an amount remaining at 4 h of 97.6%. Besides, the share remaining at 4 h in series [1] (pH 10, pH 10) was found to be 95.7%. For the same compound, in the series on mouse leukemia L-1210 (setting [6]), the responders at 1.56 mg/kg is 0%, the responders at 3.13 mg/kg is 20%, the responders at 6.25 mg/kg was 80% and the responders at 12.5 mg/kg is 80%. In addition, the responders at 25 mg/kg in the series with mouse leukemia L-1210 (setting [6]) is 100%. In the series on mouse leukemia L-1210 (setting [7]), the response vs control in vivo at 1.56 mg/kg came out at 177%, the response vs control in vivo at 3.13 mg/kg was over 290%, the response vs control in vivo at 6.25 mg/kg is over 400% and the response vs control in vivo at 12.5 mg/kg was over 408%. Further, in the series with mouse leukemia L-1210 (setting [7]), the response vs control in vivo at 25 mg/kg is over 423%.

Consider `COC(NC(=O)CCCCCCNC(=N)N)C(=O)NCCCCNCCCN` (single isomer, unassigned; (-)) [Compound 9 (-), (-)-N-[4-(3-aminopropyl)aminobutyl]-2-(7-guanidinoheptanamido)-2-methoxyethanamide], for which, in the series with mouse leukemia L-1210 (0.10 mg/kg/day i.p., read-out: Number of mice survived for 30 days), the responders at 0.1 mg/kg was 0%. Also, in the series on mouse leukemia L-1210 (0.10 mg/kg/day i.p., read-out: Prolongation of survival period (%), T/C × 100), the response vs control in vivo at 0.1 mg/kg turned out to be 110%. For the same compound, in the series with mouse leukemia L-1210 (0.20 mg/kg/day i.p., read-out: Number of mice survived for 30 days (converted)), the responders at 0.2 mg/kg was 0%. In addition, the response vs control in vivo at 0.2 mg/kg with mouse leukemia L-1210 (0.20 mg/kg/day i.p., read-out: Prolongation of survival period (%), T/C × 100) is 127%. Moreover, the responders at 0.39 mg/kg in the series on mouse leukemia L-1210 (0.39 mg/kg/day i.p., read-out: Number of mice survived for 30 days (converted)) was 50%. Also, the response vs control in vivo at 0.39 mg/kg in the series with mouse leukemia L-1210 (0.39 mg/kg/day i.p., read-out: Prolongation of survival period (%), T/C × 100) was over 342%. Moreover, the responders at 0.78 mg/kg with mouse leukemia L-1210 (0.78 mg/kg/day i.p., read-out: Number of mice survived for 30 days (converted)) is 50%. Moreover, the response vs control in vivo at 0.78 mg/kg in the series with mouse leukemia L-1210 (0.78 mg/kg/day i.p., read-out: Prolongation of survival period (%), T/C × 100) was over 370%. Also, in the series on mouse leukemia L-1210 (setting [6]), the responders at 1.56 mg/kg was 50%, the responders at 3.13 mg/kg was 75%, the responders at 6.25 mg/kg is 25% and the responders at 12.5 mg/kg is 50%. Further, the responders at 25 mg/kg in the series on mouse leukemia L-1210 (setting [6]) was 0%. For the same compound, in the series on mouse leukemia L-1210 (setting [7]), the response vs control in vivo at 1.56 mg/kg is over 356%, the response vs control in vivo at 3.13 mg/kg is over 411%, the response vs control in vivo at 6.25 mg/kg was over 336% and the response vs control in vivo at 12.5 mg/kg was over 390%. Further, the response vs control in vivo at 25 mg/kg with mouse leukemia L-1210 (setting [7]) turned out to be 0%.

As for `N=C(N)NCCCC[C@H](O)CC(=O)NC(O)C(=O)NCCCCNCCCN` (single isomer, unassigned; (-)) [(-)-spergualin, reference compound], the share remaining at 4 h in series [1] (pH 2, pH 2) was determined as 88.1%; in series [1] (pH 3, pH 3), 88%; in series [1] (pH 4, pH 4) it was 87.8%; in series [1] (pH 5, pH 5), 82.5%; in series [1] (pH 6, pH 6) it was 46.5%; in series [1] (pH 7, pH 7) it was 12.6%. Also, the share remaining at 4 h in series [1] (pH 8, pH 8) amounted to 6.1%; in series [1] (pH 9, pH 9), 0%.

As for `CCCCOC(NC(=O)CCCCCCNC(=N)N)C(=O)NCCCCNCCCN` (stereo not shown) [Compound 13, N-[4-(3-aminopropyl)aminobutyl]-2-(7-guanidinoheptanamido)-2-butoxyethanamide], the fraction remaining at 4 h is 72.4% in series [1] (pH 2, pH 2); 90.1% in series [1] (pH 3, pH 3); 100% in series [1] (pH 4, pH 4); 100% in series [1] (pH 6, pH 6); 100% in series [1] (pH 8, pH 8); 98% in series [1] (pH 9, pH 9). The compound also displayed a share remaining at 4 h in series [1] (pH 10, pH 10) of 96%. Moreover, in series [2] (setting [5]), the inhibition at 1.25 µg/mL was 17%. Also, the inhibition at 2.5 µg/mL in series [2] (setting [5]) is 21.3%. Further, in series [2] (setting [5]), the inhibition at 5 µg/mL came out at 24%. Besides, the inhibition at 10 µg/mL in series [2] (setting [5]) came to 33.2%. In addition, the inhibition at 20 µg/mL in series [2] (setting [5]) worked out at 65.7%. Further, in series [2] (setting [5]), the inhibition at 40 µg/mL was determined as 72.5%. Besides, in series [2], the IC50 is 14 µg/mL (≈ 31.6 µM).

For the origin of these results see US4983328A, “N-(4-(3-aminopropyl)aminobutyl)-2-(ω-gua nidino-fatty-acid-amido(-2-substituted-ethanamide, salt thereof, and process for preparation thereof” (Bristol-Myers Company, priority 1981, dated 1991).
